Where two headings read alike, the source gives them in different places.
Legend:
mice [1] = assay: Inverted screen test in mice (Example 4); assay type: in vivo; conditions: for ED50: Mus musculus, ip
Protocol: An inverted screen test was performed on mice to investigate the effect of vanillin and vanillin analogs on muscular function. After i.p. injection of vanillin or vehicle, each mouse was placed on a wire screen (12.8 cm×12.8 cm with a 6 mm mesh size) and the screen was inverted. A positive effect was found if the drug caused the mouse to fall from the screen within 60 seconds. A negative effect was found if the mouse had the ability to climb from the underside of the screen to the top side of the screen within the 60 second time period. Hanging from the underside of the screen without falling but without climbing to the topside at 60 seconds is recorded as a one-half positive effect per the convention of Coughenour, L. L.; Mclean, J. R.; Parker, R. B., "A New Device for the Rapid Measurement of Impaired Motor Function in Mice," Pharmacol. Biochem. Behav., 6: 351-353; 1977. The test was performed at 2, 5, 10, and 30 minutes following administration of vanillin or vehicle. At each of those times, an ED-50 (and 95% confidence limits) was determined for vanillin. Six mice were used in each experimental group.
Several analogs of vanillin were also examined in this test. The chemical structures and chemical names for these compounds are described hereinabove.
The testing of these compounds was limited both by supply of compound and by solubility. Testing was performed at 2, 5, 10, 20 minutes after administration of drug or vehicle. The vehicles used to solubilize the analogs were as follows: 10% ethanol for TBJ1, TBJ2, and TBJ3; 3% ammonium hydroxide solution in saline for FSA (pH=9); 6.7% ammonium hydroxide in saline for TB17 (pH=9.3); and 20% ethanol, 1% ammonium hydroxide solution in saline for TB34 (pH=10.0). ED-50s of compounds (and 95% confidence limits) were calculated in cases where the data permitted the calculation.

rats = conditions: cited from earlier work
man = conditions: in man; cited from earlier work
mice [2] = assay: Electroshock-induced seizures in mice (Example 5); assay type: in vivo; conditions: vanillin 300 mg/kg i.p.
Protocol: Mice were treated with vanillin (100, 200, or 300 mg/kg) or saline (0.9% NaCl) by i.p. injection. The treatment was followed either by injection of pentylenetetrazol ("Metrazol"), 80 or 90 mg/kg by i.p. injection (given 5 minutes after vanillin) or by exposure to a 1-second pulse of shock through electrodes clamped to the ears (5 minutes after vanillin). The end-points for both tests were the occurrence of a tonic (extensor) convulsion and/or death. Six mice were used per group for the Metrazol-induced seizure test, and five mice were used per group for the electroshock-induced seizure test.

mice [3] = assay: Spontaneous locomotor activity of mice (Example 3); assay type: in vivo
Protocol: The effect of vanillin on spontaneous locomotor activity of mice was examined. Three groups of male mice, with four mice per group, were assigned to receive a dosage of vanillin of 0, 200 or 300 mg/kg, respectively. After i.p. injection of vanillin or a control solution (0.9% NaCl in water), an injected mouse was placed by itself in a cage, the cage enclosed in a cabinet to exclude external stimuli, and locomotor activity of the mouse was monitored. Three types of movements of the mouse within the cage were measured, based upon interruptions of 16 beams of infrared light, spaced one inch (2.54 cm) apart, which traverse the cage. Interruptions of the infrared beams are detected by sensors and are recorded as "counts" of activity using a system obtained from Omnitech Electronics, Columbus Ohio.
Three types of activity measures were automatically recorded by the system: (1) all interruptions of all beams were recorded as "Total activity counts"; (2) interruptions of two consecutive beams were recorded as "Ambulatory activity counts"; and (3) interruptions of four consecutive beams were recorded as "Gross movements".
The effects of doses of vanillin (200 and 300 mg/kg i.p.) was assessed and compared with locomotor activity recorded for concomitantly tested mice given only vehicle (0.9% NaCl in water). Measurement of locomotor activity was made during 10 minute intervals for 60 minutes after treatment. Due to the relatively short duration of vanillin encountered, the higher dose group also had measurements taken at three minute intervals for 24 minutes and at one minute intervals for nine minutes after treatment.
Means and standard errors of numbers of counts were determined for each experimental group.

mice [4] = assay: Pentobarbital-induced loss of righting reflex ("sleep") in mice (Example 2); assay type: in vivo
Protocol: The depressant effect of vanillin on mice was investigated by examining the effect of vanillin on pentobarbital-induced loss of righting reflex. Groups of mice (six to fourteen mice per group) were designated to receive a dose of vanillin of 50, 100, 200 or 300 mg/kg, or a control vehicle (0.9% sodium chloride in water). Fifty (50) mg/kg I.p. (intraperitoneally)injected pentobarbital was administered to each mouse of each group, and each mouse was also concurrently given the dose of vanillin (50, 100, 200 or 300 mg/kg) or the control vehicle, depending on its grouping, by s.c. (subcutaneous) injection.
The effects of vanillin on the onset and duration of "sleep" induced by the pentobarbital were observed. […] Means and standard errors of values for onset and duration of "sleep" were determined for each experimental group. Each vanillin-treated group was compared with its concomitantly tested control group (treated with saline in lieu of vanillin) for evaluating the statistical significance of vanillin effect.

COc1cc(C=O)ccc1O [vanillin, 4-hydroxy-3-methoxybenzaldehyde]
ED50 (mice [1]; 2 min, 2 min post-treatment, read-out: ED-50 (95% confidence limits)): 112 mg/kg
ED50 (mice [1]; 5 min, 5 min post-treatment, read-out: ED-50 (95% confidence limits)): 104 mg/kg
ED50 (mice [1]; 10 min, 10 min post-treatment, read-out: ED-50 (95% confidence limits)): 112 mg/kg
ED50 (mice [1]; 10 min, first 10 minutes after injection, read-out: ED-50): ~100 mg/kg
ED50 (mice [1]; 0.5 h, 30 min post-treatment, read-out: ED-50 (95% confidence limits)): 748 mg/kg
change of potency with time (mice [1]; between 10 and 30 minutes after injection): declined precipitously
oral LD50 (rats): 1580 mg/kg
metabolism and excretion (man): converted to vanillic acid in the liver and is excreted in the urine
Death (mice [2]; 1-second electroshock (vehicle 1/5)): 0/5
Tonic Convulsion (mice [2]; 1-second electroshock (vehicle 5/5)): 4/5
Gross movements (mice [3]; 200 mg/kg i.p., 0-10 min (control 83 ± 16)): 86 ± 16 counts
Ambulatory activity counts (mice [3]; 200 mg/kg i.p., 0-10 min (control 739 ± 108)): 545 ± 62 counts
Total activity counts (mice [3]; 200 mg/kg i.p., 0-10 min (control 1525 ± 281)): 897 ± 201 counts
Gross movements (mice [3]; 200 mg/kg i.p., 10-20 min (control 41 ± 8)): 43 ± 8 counts
Ambulatory activity counts (mice [3]; 200 mg/kg i.p., 10-20 min (control 461 ± 68)): 291 ± 37 counts
Gross movements (mice [3]; 200 mg/kg i.p., 20-30 min (control 34 ± 13)): 18 ± 13 counts
Ambulatory activity counts (mice [3]; 200 mg/kg i.p., 20-30 min (control 307 ± 76)): 130 ± 85 counts
Total activity counts (mice [3]; 200 mg/kg i.p., 20-30 min (control 582 ± 126)): 481 ± 257 counts
Gross movements (mice [3]; 200 mg/kg i.p., 30-40 min (control 31 ± 11)): 14 ± 11 counts
Ambulatory activity counts (mice [3]; 200 mg/kg i.p., 30-40 min (control 599 ± 224)): 409 ± 276 counts
Total activity counts (mice [3]; 200 mg/kg i.p., 30-40 min (control 635 ± 204)): 410 ± 275 counts
Gross movements (mice [3]; 200 mg/kg i.p., 40-50 min (control 19 ± 14)): 32 ± 13 counts
Ambulatory activity counts (mice [3]; 200 mg/kg i.p., 40-50 min (control 171 ± 103)): 243 ± 67 counts
Total activity counts (mice [3]; 200 mg/kg i.p., 40-50 min (control 268 ± 167)): 413 ± 115 counts
Gross movements (mice [3]; 200 mg/kg i.p., 50-60 min (control 23 ± 8)): 31 ± 8 counts
Gross movements (mice [3]; 300 mg/kg i.p., 0-10 min (control 83 ± 16)): 75 ± 23 counts
Ambulatory activity counts (mice [3]; 300 mg/kg i.p., 0-10 min (control 739 ± 108)): 479 ± 150 counts
Gross movements (mice [3]; 300 mg/kg i.p., 10-20 min (control 41 ± 8)): 57 ± 19 counts
Ambulatory activity counts (mice [3]; 300 mg/kg i.p., 10-20 min (control 461 ± 68)): 298 ± 117 counts
Total activity counts (mice [3]; 300 mg/kg i.p., 10-20 min (control 832 ± 105)): 449 ± 155 counts
Gross movements (mice [3]; 300 mg/kg i.p., 20-30 min (control 34 ± 13)): 37 ± 16 counts
Ambulatory activity counts (mice [3]; 300 mg/kg i.p., 20-30 min (control 307 ± 76)): 245 ± 100 counts
Total activity counts (mice [3]; 300 mg/kg i.p., 20-30 min (control 582 ± 126)): 404 ± 176 counts
Gross movements (mice [3]; 300 mg/kg i.p., 30-40 min (control 31 ± 11)): 38 ± 10 counts
Ambulatory activity counts (mice [3]; 300 mg/kg i.p., 30-40 min (control 599 ± 224)): 270 ± 74 counts
Total activity counts (mice [3]; 300 mg/kg i.p., 30-40 min (control 635 ± 204)): 441 ± 121 counts
Gross movements (mice [3]; 300 mg/kg i.p., 40-50 min (control 19 ± 14)): 21 ± 8 counts
Ambulatory activity counts (mice [3]; 300 mg/kg i.p., 40-50 min (control 171 ± 103)): 244 ± 66 counts
Total activity counts (mice [3]; 300 mg/kg i.p., 40-50 min (control 268 ± 167)): 365 ± 108 counts
Gross movements (mice [3]; 300 mg/kg i.p., 50-60 min (control 23 ± 8)): 12 ± 7 counts
effect on smaller types of motor movements (mice [3]; 200 and 300 mg/kg i.p.): suppressed
effect on gross movements, such as walking (mice [3]; any time, doses up to 300 mg/kg): not significantly affected
persistence of some effect on locomotor activity (mice [3]; i.p.): ≥ 60 min
duration of loss of righting reflex (mice [4]; 100 to 300 mg/kg along with pentobarbital): markedly increased and enhanced
effect on barbituate-induced loss of righting reflex (mice [4]; lower dose, 50 mg/kg): appeared to lessen the barbituate effect
Duration of "Sleep" (mean + SEM) (mice [4]; vanillin 50 mg/kg s.c. + pentobarbital 50 mg/kg i.p., * p<0.05 vs control (vehicle 31.0 ± 3.79)): 20.3 ± 1.09 min
Duration of "Sleep" (mean + SEM) (mice [4]; vanillin 100 mg/kg s.c. + pentobarbital 50 mg/kg i.p. (vehicle 36.5 ± 4.67)): 47.6 ± 4.48 min
Onset of "sleep" (mean + SEM) (mice [4]; vanillin 200 mg/kg s.c. + pentobarbital 50 mg/kg i.p. (vehicle 3.5 ± 0.87)): 2.8 ± 0.97 min
Duration of "Sleep" (mean + SEM) (mice [4]; vanillin 200 mg/kg s.c. + pentobarbital 50 mg/kg i.p., ** p<0.001 vs control (vehicle 27.4 ± 3.34)): 62.9 ± 5.05 min
Onset of "sleep" (mean + SEM) (mice [4]; vanillin 300 mg/kg s.c. + pentobarbital 50 mg/kg i.p. (vehicle 4.3 ± 0.97)): 3.3 ± 0.23 min
Duration of "Sleep" (mean + SEM) (mice [4]; vanillin 300 mg/kg s.c. + pentobarbital 50 mg/kg i.p., ** p<0.001 vs control (vehicle 39.6 ± 6.57)): 102.1 ± 5.71 min

Reference: US5668182A, “Method of calming or sedating an animal with a hydroxy benzaldehyde compound” (priority 1996, dated 1997)
